Like-named read-outs stand apart in the source and are kept apart here.
Tests used:
PRMT5/MEP50 = PRMT5/MEP50 (Homo sapiens (Human), UniProt O14744); test: PRMT5 Biochemical Assay (PRMT5/MEP50 enzyme assay on peptide substrate, 3H-SAM Flashplate); conditions: PRMT5 biochemical assay
Outline: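 Radiometric methylation of a biotin-tagged H4(1-15) peptide by human PRMT5/MEP50 from baculovirus/Sf9, with ³H-SAM incorporation read on streptavidin Flashplates. Buffer: Bicine pH 7.6, TCEP, BSG, Tween20; compound preincubated 30 min at 25 °C; stopped with 600 µM final unlabeled SAM. DMSO and SAH controls; IC50 from fitted % inhibition.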

Z-138 cell line = test: Z-138 Proliferation Assay (Cell Titer Glo, 5 days); assay type: cell-based; conditions: Homo sapiens, read-out: Proliferation EC50
Outline: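 Viability via CellTiter-Glo luminescence (ATP) after 5-day incubation at 37 °C, 5% CO2. Compounds tested in triplicate, nine 3-fold steps, highest final concentration 20 μM in 0.2% DMSO; 50% inhibitory concentration by 4-parameter fit of normalized curves.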

[1] = test system: symmetric di-methyl arginine in Z-138 cells; test: Z-138 Methylation Assay (In Cell Western for symmetric di-methyl arginine and DNA content); assay type: cell-based; conditions: Homo sapiens, In Cell Western methylation, read-out: ICW EC50
Outline: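 In-cell western: symmetric di-methyl arginine signal ratioed to DRAQ5 DNA content after 96 h compound exposure of Z-138 cells seeded at 50,000 cells/mL.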

[2] = 120 h, Z-138 cells, 5 days, Cell Titer Glo

PRMT5/MEP50, sequence (O14744 other isoform, or with tags, fused parts or gaps): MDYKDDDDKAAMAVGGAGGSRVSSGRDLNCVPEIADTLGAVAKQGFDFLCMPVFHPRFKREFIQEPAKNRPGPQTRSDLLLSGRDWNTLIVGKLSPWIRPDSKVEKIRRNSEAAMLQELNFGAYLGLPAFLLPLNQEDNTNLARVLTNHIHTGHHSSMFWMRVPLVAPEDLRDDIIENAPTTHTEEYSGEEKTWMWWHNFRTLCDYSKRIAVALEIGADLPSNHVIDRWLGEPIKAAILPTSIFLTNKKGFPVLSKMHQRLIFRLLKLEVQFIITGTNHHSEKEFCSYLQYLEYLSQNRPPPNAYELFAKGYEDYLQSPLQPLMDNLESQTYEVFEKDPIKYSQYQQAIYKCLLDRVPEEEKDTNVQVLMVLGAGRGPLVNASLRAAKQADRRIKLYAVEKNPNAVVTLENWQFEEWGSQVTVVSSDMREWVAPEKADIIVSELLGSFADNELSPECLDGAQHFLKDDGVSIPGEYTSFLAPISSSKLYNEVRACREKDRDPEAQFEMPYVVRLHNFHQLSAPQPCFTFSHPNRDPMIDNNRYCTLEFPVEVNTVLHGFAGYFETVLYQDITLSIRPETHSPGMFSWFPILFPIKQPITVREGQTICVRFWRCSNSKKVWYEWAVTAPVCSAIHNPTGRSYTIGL
PRMT5/MEP50, sequence (Q9BQA1 other isoform, or with tags, fused parts or gaps partner): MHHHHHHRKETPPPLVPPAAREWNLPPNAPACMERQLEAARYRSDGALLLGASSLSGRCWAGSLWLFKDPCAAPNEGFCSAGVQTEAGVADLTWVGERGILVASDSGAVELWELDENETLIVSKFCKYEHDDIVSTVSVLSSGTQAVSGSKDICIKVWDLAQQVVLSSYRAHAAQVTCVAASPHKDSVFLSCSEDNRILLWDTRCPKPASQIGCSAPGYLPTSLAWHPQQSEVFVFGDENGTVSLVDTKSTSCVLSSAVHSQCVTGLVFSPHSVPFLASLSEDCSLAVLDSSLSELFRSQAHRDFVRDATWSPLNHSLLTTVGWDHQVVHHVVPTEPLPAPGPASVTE

Structure (SMILES) | IC50 (PRMT5/MEP50) [nM] | EC50 (Z-138 cell line; [2]) [nM] | EC50 [1] [nM] | EC50 (Z-138 cell line; Z-138, 120 h) [nM]
O=C(NC[C@H](O)CN1CCc2ccccc2C1)c1cc(NC2CCN(C(=O)C3CCC3)CC2)ccn1 [Compound 566] | < 100 | < 100 | < 100 | –
CN(C)C(=O)CN1CCC(Nc2cc(C(=O)NC[C@H](O)CN3CCc4ccccc4C3)ncn2)CC1 [Compound 567] | < 100 | 101 to 1000 | < 100 | –
CSCCN1CC(Nc2cc(C(=O)NC[C@H](O)CN3CCc4ccccc4C3)ncn2)C1 [Compound 568] | < 100 | 1000 to 10000 | 101 to 1000 | –
CS(=O)(=O)CCN1CCC(Nc2cc(C(=O)NC[C@H](O)CN3CCc4ccccc4C3)ncn2)CC1 [Compound 569] | < 100 | 101 to 1000 | < 100 | –
CCSCCN1CCC(Nc2cc(C(=O)NC[C@H](O)CN3CCc4ccccc4C3)ncn2)CC1 [Compound 570] | < 100 | – | < 100 | 1000 to 10000
CC(=O)N1CCC[C@@H](Nc2cc(C(=O)NC[C@H](O)CN3CCc4ccccc4C3)ncn2)C1 [Compound 571] | < 100 | 1000 to 10000 | < 100 | –
CC(=O)N1CCC[C@H](Nc2cc(C(=O)NC[C@H](O)CN3CCc4ccccc4C3)ncn2)C1 [Compound 572] | < 100 | 101 to 1000 | < 100 | –
CC1c2ccccc2CCN1C[C@@H](O)CNC(=O)c1cc(NC2COC2)ncn1 (stereo partly drawn) [Compound 573] | 101 to 1000 | > 5000 | 101 to 1000 | –
CCC(=O)N1CC(Nc2cc(C(=O)NC[C@H](O)CN3CCc4ccccc4C3)ncn2)C1 [Compound 574] | < 100 | < 100 | < 100 | –
CN1CC(Nc2ccnc(C(=O)NC[C@H](O)CN3CCc4ccccc4C3)c2)C1 [Compound 575] | < 100 | > 5000 | < 100 | –
COCCN1CC(Nc2ccnc(C(=O)NC[C@H](O)CN3CCc4ccccc4C3)c2)C1 [Compound 576] | < 100 | 1000 to 10000 | < 100 | –
O=C(NC[C@H](O)CN1CCc2ccccc2C1)c1cc(NC2CN(C(=O)C3CCC3)C2)ccn1 [Compound 577] | < 100 | < 100 | < 100 | –
CC(C)(O)CN1CCC(Nc2cc(C(=O)NC[C@H](O)CN3CCc4ccccc4C3)ncn2)CC1 [Compound 579] | < 100 | 101 to 1000 | < 100 | –
CS(=O)(=O)CCN1CC(Nc2cc(C(=O)NC[C@H](O)CN3CCc4ccccc4C3)ncn2)C1 [Compound 580] | < 100 | > 5000 | 101 to 1000 | –
CCSCCN1CC(Nc2cc(C(=O)NC[C@H](O)CN3CCc4ccccc4C3)ncn2)C1 [Compound 581] | < 100 | – | 101 to 1000 | > 5000
CC(=O)N1CC[C@H](Nc2cc(C(=O)NC[C@H](O)CN3CCc4ccccc4C3)ncn2)C1 [Compound 582] | < 100 | 1000 to 10000 | < 100 | –
CC(=O)N1CC(Nc2cc(C(=O)NC[C@H](O)CN3CCc4ccccc4C3C)ncn2)C1 (stereo partly drawn) [Compound 583] | < 100 | 1000 to 10000 | < 100 | –
CC(=O)N1CCC(Nc2cc(C(=O)NC[C@H](O)CN3CCc4ccccc4C3C)ncn2)CC1 (stereo partly drawn) [Compound 584] | < 100 | 1000 to 10000 | < 100 | –
O=C(NC[C@H](O)CN1CCc2ccccc2C1)c1cc(N[C@H]2CC[C@H](O)CC2)ncn1 [Compound 585] | < 100 | 101 to 1000 | < 100 | –
CO[C@H]1CC[C@H](Nc2cc(C(=O)NC[C@H](O)CN3CCc4ccccc4C3)ncn2)CC1 [Compound 586] | < 100 | < 100 | < 100 | –
CN(C)C(=O)[C@H]1CC[C@H](Nc2cc(C(=O)NC[C@H](O)CN3CCc4ccccc4C3)ncn2)CC1 [Compound 587] | < 100 | < 100 | < 100 | –
CC1(C)c2ccccc2CCN1C[C@@H](O)CNC(=O)c1cc(NC2COC2)ncn1 [Compound 588] | 1000 to 10000 | > 5000 | > 1000 | –
CN(C)[C@H]1CC[C@@H](Nc2cc(C(=O)NC[C@H](O)CN3CCc4ccccc4C3)ncn2)CC1 [Compound 589] | < 100 | 1000 to 10000 | 101 to 1000 | –
CC(=O)N[C@H]1CC[C@@H](Nc2cc(C(=O)NC[C@H](O)CN3CCc4ccccc4C3)ncn2)CC1 [Compound 590] | < 100 | 101 to 1000 | < 100 | –
N[C@H]1CC[C@@H](Nc2cc(C(=O)NC[C@H](O)CN3CCc4ccccc4C3)ncn2)CC1 [Compound 591] | < 100 | 1000 to 10000 | < 100 | –

Structure (SMILES) | IC50 (PRMT5/MEP50) [nM] | EC50 (Z-138 cell line; [2]) [nM] | EC50 [1] [nM] | EC50 (Z-138 cell line; Z-138, 120 h) [nM]
O=C(NC[C@H](O)CN1CCc2ccccc2C1)c1cc(N[C@H]2CC[C@@H](O)CC2)ncn1 [Compound 592] | < 100 | 101 to 1000 | < 100 | –
CN(C)[C@H]1CC[C@H](Nc2cc(C(=O)NC[C@H](O)CN3CCc4ccccc4C3)ncn2)CC1 [Compound 593] | < 100 | 101 to 1000 | < 100 | –
CC(=O)N[C@H]1CC[C@H](Nc2cc(C(=O)NC[C@H](O)CN3CCc4ccccc4C3)ncn2)CC1 [Compound 594] | < 100 | 101 to 1000 | < 100 | –
N[C@H]1CC[C@H](Nc2cc(C(=O)NC[C@H](O)CN3CCc4ccccc4C3)ncn2)CC1 [Compound 595] | < 100 | > 5000 | < 100 | –
NC(=O)[C@H]1CC[C@@H](Nc2cc(C(=O)NC[C@H](O)CN3CCc4ccccc4C3)ncn2)CC1 [Compound 596] | < 100 | 1000 to 10000 | < 100 | –
CNC(=O)[C@H]1CC[C@@H](Nc2cc(C(=O)NC[C@H](O)CN3CCc4ccccc4C3)ncn2)CC1 [Compound 597] | < 100 | 101 to 1000 | < 100 | –
CN(C)C(=O)[C@H]1CC[C@@H](Nc2cc(C(=O)NC[C@H](O)CN3CCc4ccccc4C3)ncn2)CC1 [Compound 598] | < 100 | 1000 to 10000 | < 100 | –
O=C(NC[C@H](O)CN1CCc2ccccc2C1)c1cc(N[C@H]2CC[C@@H](C(=O)N3CCOCC3)CC2)ncn1 [Compound 599] | < 100 | 1000 to 10000 | < 100 | –
CC(=O)[C@H]1CC[C@H](Nc2cc(C(=O)NC[C@H](O)CN3CCc4ccccc4C3)ncn2)CC1 [Compound 600] | < 100 | 1000 to 10000 | < 100 | –
NC(=O)[C@H]1CC[C@H](Nc2cc(C(=O)NC[C@H](O)CN3CCc4ccccc4C3)ncn2)CC1 [Compound 601] | < 100 | 101 to 1000 | < 100 | –
CNC(=O)[C@H]1CC[C@H](Nc2cc(C(=O)NC[C@H](O)CN3CCc4ccccc4C3)ncn2)CC1 [Compound 602] | < 100 | 101 to 1000 | < 100 | –
CC(C)(O)CNCC1CN2C=NC(C(=O)NC[C@H](O)CN3CCc4ccccc4C3)=CC2=N1 (stereo partly drawn) [Compound 603] | 101 to 1000 | 1000 to 10000 | > 1000 | –
Cc1c(NC2COC2)ncnc1C(=O)NC[C@H](O)CN1CCc2ccccc2C1 [Compound 604] | < 100 | 1000 to 10000 | 101 to 1000 | –
CC(=O)N1CC(Nc2cc(C(=O)NC[C@H](O)CN3CCc4ccccc4C3(C)C)ncn2)C1 [Compound 605] | 101 to 1000 | > 5000 | 101 to 1000 | –
CC(=O)N1CCC(Nc2cc(C(=O)NC[C@H](O)CN3CCc4ccccc4C3(C)C)ncn2)CC1 [Compound 606] | 101 to 1000 | > 5000 | 101 to 1000 | –
CC(C(O)CNC(=O)c1cc(NC2COC2)ncn1)N1CCc2ccccc2C1 (stereo not drawn) [Compound 607] | 1000 to 10000 | > 5000 | > 1000 | –
CC(=O)N1CC(Nc2cc(C(=O)NCC(O)C(C)N3CCc4ccccc4C3)ncn2)C1 (stereo not drawn) [Compound 608] | 101 to 1000 | > 5000 | > 1000 | –
CC(=O)N1CCC(Nc2cc(C(=O)NCC(O)C(C)N3CCc4ccccc4C3)ncn2)CC1 (stereo not drawn) [Compound 609] | 101 to 1000 | > 5000 | > 1000 | –
CC(=O)N1CCC(Nc2cc(C(=O)NC[C@H](O)CN3CCc4ccccc4C3)cc(N(C)C)n2)CC1 [Compound 610] | < 100 | < 100 | < 100 | –
CC(=O)N1CCC(Nc2cc(C(=O)NC[C@H](O)CN3CCc4ccccc4C3)cc(N3CCOCC3)n2)CC1 [Compound 611] | < 100 | < 100 | < 100 | –
CC(=O)N1CCC(Nc2cc(C(=O)NC[C@H](O)CN3CCc4ccccc4C3)cc(N3CCN(C)CC3)n2)CC1 [Compound 612] | < 100 | < 100 | < 100 | –
CC(=O)N1CCC(Nc2cc(C(=O)NC[C@H](O)CN3CCc4ccccc4C3)cc(N3CCN(C(C)=O)CC3)n2)CC1 [Compound 613] | < 100 | 101 to 1000 | < 100 | –
COCCN(C)c1cc(C(=O)NC[C@H](O)CN2CCc3ccccc3C2)cc(NC2CCN(C(C)=O)CC2)n1 [Compound 614] | < 100 | < 100 | < 100 | –
CC(=O)[C@H]1CC[C@@H](Nc2cc(C(=O)NC[C@H](O)CN3CCc4ccccc4C3)ncn2)CC1 [Compound 615] | < 100 | < 100 | < 100 | –

Source: patent US10307413B2, “Tetrahydro- and dihydro-isoquinoline PRMT5 inhibitors and uses thereof” (Epizyme, Inc., priority 2013, dated 2019)
